Assay results reported in patent publication US11690841B2, “Glycolysis-activating agents for treatment or prevention of disease” (Queen Mary University of London, priority 2017, dated 2023).

Tests used:
[1] = tested on: Tregs; assay: Treg trans-endothelial migration and chemotaxis transwell assays; format: cell-based, mouse; details: Tregs pre-treated with drug for 4 hours; through IFN-γ-treated EC monolayers or in response to CCL22 / CXCL10
Procedure: FIG. 1. Glycolysis fuels Treg migration. Ex vivo expanded Tregs pre-treated with the indicated drugs or vehicle for 4 hours were left to migrate through 3 μm-pore transwells layered with IFN-γ-treated syngeneic EC monolayers (A-B) or in response chemokine CCL22 through bare filter 5 μm-pore transwells (C-D). Results are expressed as percentage of migrated cells after 24 hours (A-B, n=4, N=2) or at the indicated time-points (C, n=3)±SD. The fold increase in migration was calculated by dividing experimental migration by spontaneous migration measured at 6 hours in two experiments of identical design performed in triplicates±SD.
FIG. 2. Activated Treg phenotype and function and effect of exposure to metabolism-modifying drugs. Tregs were expanded as previously described (Fu et al., 2014). A-B Tregs were treated with the indicated metabolism-targeting drugs for 4-6 hours and extensively washed. Migration of drug-exposed Tregs in response to CXCL10 (300 ng/ml) was assessed by a transwell-based assay. Results are expressed as the mean percentage of migrated cells at the indicated time points±SD. Data obtained at 6 hours from three independent experiments of identical design and normalized by spontaneous migration±SD are shown in panel B. *P<0.05.
FIG. 5. Tregs were treated with the indicated metabolism-targeting drugs for 4-6 hours, extensively washed and cultured overnight in medium alone. Migration of drug-exposed Tregs in response to CCL22 (300 ng/ml, A-B) CXCL10 (300 ng/ml, C-D) was assessed by a 6 hr chemokinesis transwell assay ([…]). Results are expressed as the mean percentage of migrated cells in a typical experiment performed in triplicate±SD (A, C). […]
Lymphocyte trans-endothelial migration and chemotaxis assays. […] The number of migrated T cells was determined by a hemocytometer counting of the cells present in the well media at different time points over a 24-h period. […] The number of migrated cells was determined by a hemocytometer.

[2] = tested on: Tregs; assay: T cell recruitment in the peritoneum (labelled drug-treated Tregs injected into IFN-γ-treated syngeneic recipients); format: in vivo, mice; details: for Treg migration / trafficking in vivo: drug-treated PKH26-labelled Tregs injected i.v. into recipients given IFN-γ i.p. 48 hours earlier, harvested after 24 hours
Procedure: FIG. 3. Drug- or vehicle-treated Tregs labeled with the fluorescent intravital dye PKH26 were injected i.v. into syngeneic recipients treated with IFN-γ i.p. 48 hours earlier. Cells were harvested from the indicated tissues after 24 hours and analyzed by flow cytometry. Representative dot plots from 3 animals are shown in panels A and C. The mean absolute number of labeled cells recovered in 4 animals±SD is shown in panels B and D. (N=1)
(§1) FIG. 20. A: AZD1656 (GCK activator, 1 μM) and vehicle-treated Tregs (2 hours in insulin-free medium) were labeled with different intravital fluorescent dyes, and co-injected into syngeneic recipients that had received IFN-γ i.p. 48 hours earlier. Cells were recovered from the peritoneum or spleen after 24 hours and analyzed by flow cytometry. Representative dot plots are shown. The bar graphs indicate mean absolute number of labeled cells retrieved±SD (n=4 N=2). B-C: expression of PCNA by Tregs stimulated with allogeneic DCs following treatment with either AZD1656 (B) or Clotrimazole (CLT, 1 μM, 2 hours, C) or vehicle alone was measured by flow cytometry. NS, non-stimulated control Tregs. Representative histograms are shown. (n=3, N=3).
FIG. 21. A: ECAR of Treg cells activated with recombinant ICAM-1 or Fc control. CLT or vehicle, as well as other glycolysis-affecting drugs were added as indicated. B: CLT- or vehicle-treated Tregs underwent CD28 or isotype-matched antibody-stimulation, labelled with different intravital fluorescent dyes and injected i.v. in syngeneic recipients that had received IFN-γ i.p. 48 hours earlier. Cells were recovered from the peritoneum (P) or spleen (S) after 24 hours and analyzed by flow cytometry. Representative dot plots are shown. The column graphs indicate mean absolute number of labeled cells retrieved±SD (n=3 N=2). * p<0.05 ***p<0.005; ****p<0.001.
T cell recruitment in the peritoneum. To observe in vivo recruitment of T cells we used the previously described model of T cell recruitment (Mirenda et al., 2007). Either PKH26 or CFSE or DDAO-SE-labelled T cells (10^7) were injected intravenously (i.v.) into mice that hd received IFN-γ (600U) via intraperitoneal injection (i.p.) 48 to 72 hours earlier. Labeled T cells recovered via peritoneal lavage were analyzed 16 hours later using flow cytometry. In addition, localization of Tregs to the spleen, where entry occurs in a passive manner (Fu et al., 2016), was analyzed to ensure that similar numbers/proportion of labeled cells were injected or co-injected in all recipients (internal control).

[3] = tested on: Tregs; assay: PCNA expression by Tregs stimulated with allogeneic DCs (flow cytometry); format: cell-based, mouse; details: 1 μM, 2 hours
Procedure: as §1
Intracellular staining. For intracellular Foxp3 staining, eBioscience Anti-Mouse/Rat Foxp3 Staining Set APC (clone FJK-165, Thermo Fisher Scientific Cat #17-5773-82) kit was used. Cells were resuspended (10^7/ml) and stained with surface antigens as mentioned above and then fixed/permeabilized for 30 minutes at 4° C. using Fixation/Permeabilization working solution made from mixing 1 part of the fixation/permebilization concentrate (eBioscience, Cat #00-5123) to 3 parts of the fixation/permebilization diluent (eBioscience, Cat #00-5223). […]

[4] = tested on: B6Kd skin allograft; assay: Survival of B6Kd-derived skin grafts transplanted in C57BL/6 recipients; format: in vivo, C57BL/6 mice; details: 10 mg/kg twice daily (20 mg/kg daily) for 2 weeks after transplantation
Text: C57B16 mice received a B6Kd skin graft or syngeneic skin as a control. […] To establish the selectivity of GCK usage by Tregs to sustain their motility, we compared the effect of pharmacological activation of GCK on the survival of B6Kd-derived skin grafts transplanted in C57BL/6 recipients. […] This schedule was designed in order to promote migration of endogenous Tregs during the early stages of the alloresponse. Control groups received saline solution with vehicle alone.

[5] = tested on: CD3/CD28-stimulated Tconv cells; assay: ECAR and OCR fluxometry (Seahorse) of anti-CD3 plus anti-CD28 stimulated CD4+ T cells; format: cell-based, mouse
Procedure: Real time analysis of the ECAR and OCR of CD4+ T cells stimulated for 24 hours with anti-CD3 plus anti-CD28 antibodies was performed using fluxometry. Wells were injected first with CLT or Vehicle. A second injection followed at the time point indicated (dashed line) introducing D-glucose into the wells. Subsequently, modulators of glycolysis (A) or cellular respiration (B) were sequentially injected at the indicated time points. […] OCR=Oxygen Consumption Rate: indirect measure of mitochondrial respiration and fatty acid oxidation (FAO). Measurement of ECAR and OCR. Real time bioenergetics analysis of extracellular acidification rates (ECAR) and oxygen consumption rates (OCR) of T cells subjected to antibody stimulation was performed using the XF analyzer (Seahorse biosciences). T cells were cultured in serum free, unbuffered XF assay medium (Seahorse biosciences, Cat #102365-100) for 1 hour. The cells were then seeded (6×10^5/well) into the seahorse XF24 cell plates for analysis. Perturbation profiling of the use of metabolic pathways by T cells was achieved by the addition of oligomycin (1 μM), FCCP (1 μM), Antimycin A (1 μM), rotenone (1 μM), D-glucose (10 mM), 2-Deoxy-D-glucose (2DG, 50 mM; all from Seahorse biosciences, Cat #103020-100 and 103015-100). […] Metabolic parameters were calculated. […]

[6] = tested on: Tregs; assay: ECAR of Treg cells activated with recombinant ICAM-1; format: cell-based, mouse; details: Tregs activated with recombinant ICAM-1
Procedure: A: ECAR of Treg cells activated with recombinant ICAM-1 or Fc control. CLT or vehicle, as well as other glycolysis-affecting drugs were added as indicated. […] Measurement of ECAR and OCR. Real time bioenergetics analysis of extracellular acidification rates (ECAR) and oxygen consumption rates (OCR) of T cells subjected to antibody stimulation was performed using the XF analyzer (Seahorse biosciences). T cells were cultured in serum free, unbuffered XF assay medium (Seahorse biosciences, Cat #102365-100) for 1 hour. The cells were then seeded (6×10^5/well) into the seahorse XF24 cell plates for analysis. Perturbation profiling of the use of metabolic pathways by T cells was achieved by the addition of oligomycin (1 μM), FCCP (1 μM), Antimycin A (1 μM), rotenone (1 μM), D-glucose (10 mM), 2-Deoxy-D-glucose (2DG, 50 mM; all from Seahorse biosciences, Cat #103020-100 and 103015-100). Experiments with the Seahorse system were done with the following assay conditions: 2 min mixture; 2 minutes wait; and 4-5 min measurement. Metabolic parameters were calculated. Experiments were done in at least triplicate wells.

SMILES | Treg migration / motility in vitro [1] | Treg migration / trafficking in vivo [2] | Treg division (PCNA expression / upregulation) [3] | also measured
O=CC[C@@H](O)[C@H](O)[C@H](O)CO [2-DG, 2-deoxyglucose] | migrated inefficiently | migrated inefficiently | – | –
COC[C@H](C)Oc1cc(Oc2cnc(C(=O)N3CCC3)cn2)cc(C(=O)Nc2cnc(C)cn2)c1 [AZD1656, 3-[5-(azetidine-1-carbonyl)pyrazin-2-yl]oxy-5-[(2S)-1-methoxypropan-2-yl]oxy-N-(5-methylpyrazin-2-yl)benzamide] | – | – | did not affect | Skin graft rejection [4]: significantly delays; Treg migration to the inflamed tissue ([2]; Tregs treated with 1 μM for 2 hours in insulin-free medium, co-injected with vehicle-treated Tregs, peritoneum after 24 hours): significantly enhanced
Clc1ccccc1C(c1ccccc1)(c1ccccc1)n1ccnc1 [CLT, Clotrimazole] | – | – | effective at inhibiting | Glycolytic flux (ECAR) [5]: inhibits; Respiration (OCR) [5]: inhibits; Treg migration to inflamed peritoneum in vivo ([2]; drug-treated Tregs with CD28 or isotype antibody stimulation, injected i.v., recovered after 24 hours): did not affect; rICAM-1-mediated induction of glycolysis (ECAR) [6]: did not affect
CCOC(=O)[C@@]1(CCCCCCOc2ccc(Cl)cc2)CO1 [Etomoxir] | Treg migration does not require fatty acid oxidation | – | – | –
CN(C)C(=N)N=C(N)N [metformin] | increased Treg motility | increased | – | –
